The text below walks through data of patent US7285567B2, “Halogenated benzamide derivatives” (Romark Laboratories, L.C., priority 2005, dated 2007).

Common to all, as to format: cell-based
For experiment [1], the system named is Paramyxovirus: Sendai virus. The experiment can be described thus: microbe, parasite or virus in culture. The conditions noted are these: Sendai virus, 37RC cell culture (Table 1).
In experiment [2] the test system is Coronavirus: canine coronavirus strain S-378. The experiment can be described thus: microbe, parasite or virus in culture. The following applies: canine coronavirus strain S-378, A72 cell culture.
A further experiment has as its system Giardia intestinalis. The experiment is described as follows: Antiparasite test by conventional means. The following applies: at concentrations of at least 50 μg/mL. The procedure:
(§1) The above identified compounds according to Formula (IV) were tested by conventional means against Trichomis vaginalis, Giardia Intestinalis, and Trypanosoma brucei.

The subject of the next experiment is Trichomonas vaginalis. The experiment is described as follows: Antiparasite test by conventional means. The conditions noted are these: at concentrations of at least 50 μg/mL. The protocol: as §1
Another experiment concerns Trypanosoma brucei. The experiment is described as follows: Antiparasite test by conventional means. The conditions noted are these: at concentrations of at least 50 μg/mL. The protocol: as §1

pEC50: −log10 of the molar value.

A word on the pEC50: it is the negative decadic logarithm of the EC50, by convention in mol/L. Read a low pEC50 as a large EC50. On to `CC(=O)Oc1c(C)cccc1C(=O)Nc1ncc(Br)s1` [RM-4803, 2-(acetolyloxy)-3-methyl-N-(5-bromo-2-thiazolyl)benzamide], for which the pEC50 in experiment [1] (Respirovirus muris) is 5.96; in experiment [2] (Alphacoronavirus 1, A-72), 5.38. Besides, the “SI (selectivity index) = CC50/EC50” value is more than 125 in experiment [1] (CC50 by MTT) and 13 in experiment [2] (CC50 by MTT). Further, the antiparasite activity result with Giardia intestinalis, in the experiment with Trichomonas vaginalis and in the experiment on Trypanosoma brucei was “failed to exhibit antiparasite activitity” in each case.
